ChEMBL document CHEMBL4507291 (2021)

What was measured:
[1] = biological target: Serine/threonine-protein kinase PAK 3 (Homo sapiens) (UniProt O75914)
[2] = biological target: Beta-3 adrenergic receptor (Homo sapiens) (UniProt P13945); details: Compound concentration 10.0 uM
[3] = biological target: Protein-tyrosine kinase 2-beta (Homo sapiens) (UniProt Q14289)
[4] = biological target: Casein kinase II subunit alpha (Homo sapiens) (UniProt P68400)
[5] = biological target: T1, Tyrosine-protein kinase receptor TYRO3 (Homo sapiens) (UniProt Q06418)
T1 sequence (whole entry): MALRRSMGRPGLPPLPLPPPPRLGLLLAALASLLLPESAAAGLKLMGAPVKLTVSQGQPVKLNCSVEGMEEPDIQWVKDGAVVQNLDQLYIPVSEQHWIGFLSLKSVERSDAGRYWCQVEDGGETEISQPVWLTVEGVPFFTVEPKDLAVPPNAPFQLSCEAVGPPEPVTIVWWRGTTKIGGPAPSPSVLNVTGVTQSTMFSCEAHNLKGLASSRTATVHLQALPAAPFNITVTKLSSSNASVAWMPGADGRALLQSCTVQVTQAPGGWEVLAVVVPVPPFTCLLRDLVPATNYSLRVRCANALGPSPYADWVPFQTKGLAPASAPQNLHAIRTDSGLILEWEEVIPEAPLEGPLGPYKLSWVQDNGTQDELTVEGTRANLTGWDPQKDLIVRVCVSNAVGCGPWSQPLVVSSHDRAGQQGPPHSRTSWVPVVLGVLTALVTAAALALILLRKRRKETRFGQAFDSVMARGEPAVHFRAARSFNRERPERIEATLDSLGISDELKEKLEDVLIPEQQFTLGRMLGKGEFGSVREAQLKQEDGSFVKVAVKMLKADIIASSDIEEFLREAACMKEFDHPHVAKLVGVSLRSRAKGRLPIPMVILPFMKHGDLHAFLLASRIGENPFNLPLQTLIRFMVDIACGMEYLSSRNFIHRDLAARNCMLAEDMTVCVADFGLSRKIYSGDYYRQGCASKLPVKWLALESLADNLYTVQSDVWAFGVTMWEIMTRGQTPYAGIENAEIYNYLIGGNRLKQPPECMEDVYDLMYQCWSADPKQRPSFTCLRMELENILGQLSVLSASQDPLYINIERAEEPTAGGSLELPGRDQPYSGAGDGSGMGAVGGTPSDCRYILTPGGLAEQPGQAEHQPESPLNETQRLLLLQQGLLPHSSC

[6] = biological target: T2, Serine/threonine-protein kinase BRSK1 (Homo sapiens) (UniProt Q8TDC3)
T2 sequence (whole entry): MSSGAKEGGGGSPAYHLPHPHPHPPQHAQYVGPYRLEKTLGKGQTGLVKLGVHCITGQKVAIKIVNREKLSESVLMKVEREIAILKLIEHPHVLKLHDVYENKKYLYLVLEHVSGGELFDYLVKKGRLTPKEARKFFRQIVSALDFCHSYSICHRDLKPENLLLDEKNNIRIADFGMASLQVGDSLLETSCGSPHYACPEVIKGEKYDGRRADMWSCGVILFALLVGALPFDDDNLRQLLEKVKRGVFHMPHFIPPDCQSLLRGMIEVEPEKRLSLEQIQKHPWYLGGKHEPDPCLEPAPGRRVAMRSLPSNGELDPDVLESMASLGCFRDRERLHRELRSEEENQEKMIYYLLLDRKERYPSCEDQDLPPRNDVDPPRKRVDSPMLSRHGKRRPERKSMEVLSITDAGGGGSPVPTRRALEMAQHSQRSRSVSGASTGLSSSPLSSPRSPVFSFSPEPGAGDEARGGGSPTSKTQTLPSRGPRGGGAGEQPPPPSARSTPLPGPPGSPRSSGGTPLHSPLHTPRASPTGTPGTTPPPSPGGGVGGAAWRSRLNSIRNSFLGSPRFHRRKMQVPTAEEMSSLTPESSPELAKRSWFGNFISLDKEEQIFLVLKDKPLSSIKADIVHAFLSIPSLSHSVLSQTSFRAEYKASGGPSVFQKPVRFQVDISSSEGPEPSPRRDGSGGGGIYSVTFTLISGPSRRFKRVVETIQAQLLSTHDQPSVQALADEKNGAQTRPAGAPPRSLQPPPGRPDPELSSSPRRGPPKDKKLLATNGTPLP

[7] = biological target: Interferon-induced, double-stranded RNA-activated protein kinase (Homo sapiens) (UniProt P19525)
Interferon-induced, double-stranded RNA-activated protein kinase (Homo sapiens), sequence (P19525 whole entry): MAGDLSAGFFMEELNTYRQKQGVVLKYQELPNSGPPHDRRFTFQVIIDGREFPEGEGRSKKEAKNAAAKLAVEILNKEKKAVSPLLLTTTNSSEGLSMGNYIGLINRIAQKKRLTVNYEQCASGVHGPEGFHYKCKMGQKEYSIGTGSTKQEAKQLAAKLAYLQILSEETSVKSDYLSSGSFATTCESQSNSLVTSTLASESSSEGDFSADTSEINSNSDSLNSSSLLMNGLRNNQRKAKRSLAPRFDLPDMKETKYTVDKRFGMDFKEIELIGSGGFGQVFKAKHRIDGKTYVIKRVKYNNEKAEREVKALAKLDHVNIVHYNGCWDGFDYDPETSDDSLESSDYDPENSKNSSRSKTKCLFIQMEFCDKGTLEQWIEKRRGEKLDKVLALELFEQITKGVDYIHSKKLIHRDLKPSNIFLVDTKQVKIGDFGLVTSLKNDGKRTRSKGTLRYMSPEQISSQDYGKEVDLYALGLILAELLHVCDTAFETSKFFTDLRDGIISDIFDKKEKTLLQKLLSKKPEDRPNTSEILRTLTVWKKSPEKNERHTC

[8] = biological target: Calcium/calmodulin-dependent protein kinase type II subunit alpha (Homo sapiens) (UniProt Q9UQM7)
Calcium/calmodulin-dependent protein kinase type II subunit alpha (Homo sapiens), sequence (Q9UQM7 whole entry): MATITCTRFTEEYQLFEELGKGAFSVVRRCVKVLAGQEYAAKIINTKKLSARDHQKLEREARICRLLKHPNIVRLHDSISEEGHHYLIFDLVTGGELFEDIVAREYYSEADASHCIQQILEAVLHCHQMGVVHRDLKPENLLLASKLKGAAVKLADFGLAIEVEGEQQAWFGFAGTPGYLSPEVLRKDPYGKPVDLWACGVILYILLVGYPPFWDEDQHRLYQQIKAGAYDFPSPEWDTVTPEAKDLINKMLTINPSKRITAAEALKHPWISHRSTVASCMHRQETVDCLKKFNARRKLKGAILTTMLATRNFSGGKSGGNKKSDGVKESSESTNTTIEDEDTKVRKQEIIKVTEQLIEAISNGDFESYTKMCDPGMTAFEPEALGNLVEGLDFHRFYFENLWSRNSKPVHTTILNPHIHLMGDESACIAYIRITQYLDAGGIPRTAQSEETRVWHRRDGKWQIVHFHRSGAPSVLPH

[9] = biological target: Receptor tyrosine-protein kinase erbB-2 (Homo sapiens) (UniProt P04626)
Receptor tyrosine-protein kinase erbB-2 (Homo sapiens), sequence (P04626 whole entry): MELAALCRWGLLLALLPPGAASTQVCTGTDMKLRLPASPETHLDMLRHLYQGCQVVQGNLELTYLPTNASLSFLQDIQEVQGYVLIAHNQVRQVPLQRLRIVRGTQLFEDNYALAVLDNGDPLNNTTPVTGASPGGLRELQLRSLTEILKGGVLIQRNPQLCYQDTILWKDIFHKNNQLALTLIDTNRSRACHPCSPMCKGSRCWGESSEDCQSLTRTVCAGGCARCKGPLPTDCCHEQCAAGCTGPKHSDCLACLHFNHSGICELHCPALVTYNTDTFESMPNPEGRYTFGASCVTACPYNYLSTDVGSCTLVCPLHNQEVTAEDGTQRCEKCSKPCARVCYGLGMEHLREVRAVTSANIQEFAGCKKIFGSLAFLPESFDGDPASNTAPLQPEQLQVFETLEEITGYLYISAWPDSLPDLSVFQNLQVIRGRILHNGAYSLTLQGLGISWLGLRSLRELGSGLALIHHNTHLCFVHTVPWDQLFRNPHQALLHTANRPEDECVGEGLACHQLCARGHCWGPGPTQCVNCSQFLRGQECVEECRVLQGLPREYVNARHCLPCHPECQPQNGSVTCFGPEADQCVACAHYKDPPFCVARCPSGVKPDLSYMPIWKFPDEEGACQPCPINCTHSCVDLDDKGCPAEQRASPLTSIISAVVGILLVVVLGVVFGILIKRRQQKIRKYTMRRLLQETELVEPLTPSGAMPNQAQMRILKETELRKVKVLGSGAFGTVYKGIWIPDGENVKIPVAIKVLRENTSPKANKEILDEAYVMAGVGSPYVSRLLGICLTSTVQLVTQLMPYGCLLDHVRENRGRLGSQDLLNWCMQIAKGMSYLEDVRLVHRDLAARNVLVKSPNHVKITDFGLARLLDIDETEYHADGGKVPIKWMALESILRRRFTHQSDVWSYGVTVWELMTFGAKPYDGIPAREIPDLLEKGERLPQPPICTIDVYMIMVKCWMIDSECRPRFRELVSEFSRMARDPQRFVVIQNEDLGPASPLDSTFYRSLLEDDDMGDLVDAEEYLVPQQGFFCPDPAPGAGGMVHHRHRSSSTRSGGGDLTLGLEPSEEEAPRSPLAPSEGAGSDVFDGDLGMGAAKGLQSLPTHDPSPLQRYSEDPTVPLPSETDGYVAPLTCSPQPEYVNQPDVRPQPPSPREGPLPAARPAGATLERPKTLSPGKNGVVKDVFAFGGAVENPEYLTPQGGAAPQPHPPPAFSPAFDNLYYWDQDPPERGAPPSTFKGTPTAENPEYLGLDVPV

[10] = biological target: Dual specificity mitogen-activated protein kinase kinase 5 (Homo sapiens) (UniProt Q13163)
[11] = tested on: Receptor-type tyrosine-protein kinase FLT3 (Homo sapiens), P36888 [D835V]
[12] = tested on: Receptor-type tyrosine-protein kinase FLT3 (Homo sapiens), P36888 [UNDEFINED MUTATION]
[13] = biological target: STE20-like serine/threonine-protein kinase (Homo sapiens) (UniProt Q9H2G2)
[14] = biological target: Dual specificity tyrosine-phosphorylation-regulated kinase 1A (Homo sapiens) (UniProt Q13627)
[15] = tested on: Phosphatidylinositol 4,5-bisphosphate 3-kinase catalytic subunit alpha isoform (Homo sapiens), P42336 [E545A]
Phosphatidylinositol 4,5-bisphosphate 3-kinase catalytic subunit alpha isoform (Homo sapiens), P42336 [E545A], sequence (P42336 whole entry E545A, canonical isoform): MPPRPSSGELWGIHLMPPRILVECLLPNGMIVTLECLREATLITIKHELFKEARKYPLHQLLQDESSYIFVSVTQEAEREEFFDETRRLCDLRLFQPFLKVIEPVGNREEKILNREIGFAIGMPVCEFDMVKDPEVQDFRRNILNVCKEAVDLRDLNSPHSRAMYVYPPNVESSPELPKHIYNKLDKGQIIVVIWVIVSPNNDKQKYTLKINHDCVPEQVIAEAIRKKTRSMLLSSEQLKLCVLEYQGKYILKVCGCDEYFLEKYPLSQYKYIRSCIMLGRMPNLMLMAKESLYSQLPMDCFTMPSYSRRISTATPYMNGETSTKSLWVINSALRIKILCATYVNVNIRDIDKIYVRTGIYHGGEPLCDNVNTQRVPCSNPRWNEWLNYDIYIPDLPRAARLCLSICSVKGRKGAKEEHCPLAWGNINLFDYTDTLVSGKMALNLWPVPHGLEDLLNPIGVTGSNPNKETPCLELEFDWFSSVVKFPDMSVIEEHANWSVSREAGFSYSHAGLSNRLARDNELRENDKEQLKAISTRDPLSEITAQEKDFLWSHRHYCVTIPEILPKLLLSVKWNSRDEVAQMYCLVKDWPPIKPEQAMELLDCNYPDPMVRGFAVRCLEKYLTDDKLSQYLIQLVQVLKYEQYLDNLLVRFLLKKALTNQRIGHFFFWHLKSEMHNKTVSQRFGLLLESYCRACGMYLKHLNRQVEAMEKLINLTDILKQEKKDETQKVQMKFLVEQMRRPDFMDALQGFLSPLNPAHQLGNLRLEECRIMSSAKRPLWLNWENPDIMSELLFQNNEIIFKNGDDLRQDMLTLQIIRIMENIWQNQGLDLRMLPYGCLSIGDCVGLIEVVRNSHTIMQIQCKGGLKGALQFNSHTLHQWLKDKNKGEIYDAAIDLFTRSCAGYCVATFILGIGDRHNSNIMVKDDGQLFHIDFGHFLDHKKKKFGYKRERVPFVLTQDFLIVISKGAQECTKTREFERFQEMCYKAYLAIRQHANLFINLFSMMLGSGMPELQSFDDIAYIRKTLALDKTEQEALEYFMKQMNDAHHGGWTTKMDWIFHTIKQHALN

[16] = biological target: Mitogen-activated protein kinase kinase kinase kinase 4 (Homo sapiens) (UniProt O95819)
[17] = biological target: D(3) dopamine receptor (Homo sapiens) (UniProt P35462); details: Compound concentration 10.0 uM
D(3) dopamine receptor (Homo sapiens), sequence (P35462 whole entry, canonical isoform): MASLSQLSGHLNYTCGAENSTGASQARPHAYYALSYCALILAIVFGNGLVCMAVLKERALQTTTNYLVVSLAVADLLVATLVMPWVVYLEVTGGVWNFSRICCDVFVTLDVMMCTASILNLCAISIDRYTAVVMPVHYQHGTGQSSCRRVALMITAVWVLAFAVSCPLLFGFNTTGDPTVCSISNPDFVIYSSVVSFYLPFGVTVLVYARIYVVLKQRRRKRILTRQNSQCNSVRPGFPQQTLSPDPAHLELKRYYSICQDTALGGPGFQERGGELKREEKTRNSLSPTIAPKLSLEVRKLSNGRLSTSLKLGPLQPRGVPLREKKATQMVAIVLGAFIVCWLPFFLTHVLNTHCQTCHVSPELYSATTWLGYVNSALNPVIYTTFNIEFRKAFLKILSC

[18] = biological target: Phosphorylase b kinase gamma catalytic chain, skeletal muscle/heart isoform (Homo sapiens) (UniProt Q16816)
Phosphorylase b kinase gamma catalytic chain, skeletal muscle/heart isoform (Homo sapiens), sequence (Q16816 whole entry, looked up, canonical isoform): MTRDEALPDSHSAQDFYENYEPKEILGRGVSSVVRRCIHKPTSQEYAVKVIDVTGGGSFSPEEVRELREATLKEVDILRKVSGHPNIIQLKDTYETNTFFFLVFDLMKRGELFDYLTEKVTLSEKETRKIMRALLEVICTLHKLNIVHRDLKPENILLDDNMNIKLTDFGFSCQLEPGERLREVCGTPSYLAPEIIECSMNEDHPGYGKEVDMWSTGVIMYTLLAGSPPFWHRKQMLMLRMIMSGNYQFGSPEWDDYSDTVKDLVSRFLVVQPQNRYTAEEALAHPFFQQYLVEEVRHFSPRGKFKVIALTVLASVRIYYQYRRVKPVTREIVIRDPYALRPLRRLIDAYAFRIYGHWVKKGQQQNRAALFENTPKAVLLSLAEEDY

[19] = Compound concentration 1000.0 nM
[20] = Compound concentration 100.0 nM

Serine/threonine-protein kinase PAK 3 (Homo sapiens), sequence (O75914 whole entry, looked up): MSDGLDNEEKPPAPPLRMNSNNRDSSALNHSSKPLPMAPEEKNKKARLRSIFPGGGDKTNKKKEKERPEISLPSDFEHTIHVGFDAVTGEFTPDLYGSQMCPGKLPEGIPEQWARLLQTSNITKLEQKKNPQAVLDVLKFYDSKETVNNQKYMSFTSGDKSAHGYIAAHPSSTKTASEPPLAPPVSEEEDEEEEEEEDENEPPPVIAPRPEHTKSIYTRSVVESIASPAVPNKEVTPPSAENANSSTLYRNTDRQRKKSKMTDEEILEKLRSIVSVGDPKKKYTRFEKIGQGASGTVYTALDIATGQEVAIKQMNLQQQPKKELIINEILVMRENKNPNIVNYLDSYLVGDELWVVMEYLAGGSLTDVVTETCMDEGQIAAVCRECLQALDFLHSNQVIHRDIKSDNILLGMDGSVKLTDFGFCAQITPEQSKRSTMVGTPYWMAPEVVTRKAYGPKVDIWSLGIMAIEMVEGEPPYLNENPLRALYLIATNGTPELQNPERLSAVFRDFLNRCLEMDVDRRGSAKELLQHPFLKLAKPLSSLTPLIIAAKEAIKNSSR

C[C@@H]1CN(c2cc(-c3nn(C)c4ccc(OC5(C)CC5)cc34)ncn2)C[C@H](C)O1 [MLi-2-NC]
inactive: residual activity [1, 19] 100% | inhibition [2] 11.8% | residual activity [3, 19] 77% | residual activity [4, 19] 76% | residual activity [5, 19] 93% | residual activity [6, 19] 97% | residual activity [7, 19] 100% | residual activity [8, 19] 98% | residual activity [9, 19] 80% | residual activity [10, 19] 93% | residual activity [11, 19] 86% | residual activity [12, 19] 88% | residual activity [13, 19] 100% | residual activity [14, 19] 81% | residual activity [15, 19] 100% | residual activity [16, 19] 100% | inhibition [17] 2.71% | residual activity [18, 19] 90%

C[C@@H]1CN(c2cc(-c3n[nH]c4ccc(OC5(C)CC5)cc34)ncn2)C[C@H](C)O1 [MLi-2]
inactive: residual activity [1, 20] 83% | inhibition [2] -5.99% | residual activity [3, 20] 100% | residual activity [4, 20] 66% | residual activity [5, 20] 100% | residual activity [6, 20] 96% | residual activity [7, 20] 100% | residual activity [8, 20] 100% | residual activity [9, 20] 77% | residual activity [10, 20] 90% | residual activity [11, 20] 73% | residual activity [12, 20] 75% | residual activity [13, 20] 98% | residual activity [14, 20] 95% | residual activity [15, 20] 76% | residual activity [16, 20] 98% | inhibition [17] -0.66% | residual activity [18, 20] 100%
